Assay results published in ChEMBL document CHEMBL4840319, “Aromatic Cadinane Sesquiterpenoids from the Fruiting Bodies of Phellinus pini Block SARS-CoV-2 Spike-ACE2 Interaction” (J Nat Prod, 2021).

Legend:
[1] = target: Spike glycoprotein/Angiotensin-converting enzyme 2 (Severe acute respiratory syndrome coronavirus 2, UniProt P0DTC2+Q9BYF1); assay: Inhibition of SARS-CoV-2 spike glycoprotein/ His tagged human ACE2 interaction incubated for 1 hr followed by substrate addition and measured after 15 mins by ELISA; assay type: protein assay
Sequence of Spike glycoprotein/Angiotensin-converting enzyme 2 (Q9BYF1 18-805 limits assumed, other chains not shown): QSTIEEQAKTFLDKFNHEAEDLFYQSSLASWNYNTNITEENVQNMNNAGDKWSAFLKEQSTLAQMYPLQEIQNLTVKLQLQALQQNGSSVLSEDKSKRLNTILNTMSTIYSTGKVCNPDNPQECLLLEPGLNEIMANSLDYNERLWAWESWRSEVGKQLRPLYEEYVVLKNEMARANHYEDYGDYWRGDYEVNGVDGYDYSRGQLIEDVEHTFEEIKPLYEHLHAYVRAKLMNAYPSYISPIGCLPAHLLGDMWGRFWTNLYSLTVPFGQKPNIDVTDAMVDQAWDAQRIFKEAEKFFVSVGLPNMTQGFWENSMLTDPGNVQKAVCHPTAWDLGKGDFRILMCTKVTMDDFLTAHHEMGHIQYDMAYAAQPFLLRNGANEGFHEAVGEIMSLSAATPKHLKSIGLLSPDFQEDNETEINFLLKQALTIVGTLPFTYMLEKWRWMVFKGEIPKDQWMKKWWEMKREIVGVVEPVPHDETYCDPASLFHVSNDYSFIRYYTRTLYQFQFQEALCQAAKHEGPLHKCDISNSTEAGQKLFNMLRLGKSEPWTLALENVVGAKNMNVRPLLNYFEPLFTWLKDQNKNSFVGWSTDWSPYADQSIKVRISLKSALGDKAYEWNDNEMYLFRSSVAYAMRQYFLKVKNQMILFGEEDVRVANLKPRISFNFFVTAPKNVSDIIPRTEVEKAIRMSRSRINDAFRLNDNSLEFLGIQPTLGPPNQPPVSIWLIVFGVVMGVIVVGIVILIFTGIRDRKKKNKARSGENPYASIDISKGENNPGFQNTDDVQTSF

[2] = target: Spike glycoprotein/Angiotensin-converting enzyme 2 (Severe acute respiratory syndrome coronavirus 2) (UniProt Q9BYF1+P0DTC2); assay: Inhibition of SARS-CoV-2 spike glycoprotein/ His tagged human ACE2 interaction at 100 uM incubated for 1 hr followed by substrate addition and measured after 15 mins by ELISA relative to control; assay type: protein assay

SMILES	IC50 [1]	inhibition [2]
CC(C)(O)c1ccc(CO)c2ccc(C(=O)O)cc12	64.5 µM	> 50%
CC(C)c1ccc(C(=O)O)c2ccc(C(=O)O)cc12	95.1 µM	> 50%
C[C@@H](CO)c1ccc(C(=O)O)c2ccc(C(=O)O)cc12	76.1 µM	> 50%
CC(C)c1ccc(CO)c2ccc(C(=O)O)cc12	99.1 µM	> 50%
C[C@@H](CO)c1ccc(CO)c2ccc(C(=O)O)cc12	94.4 µM	> 50%
